Data taken from patent publication US20110294778A1, “HEPATITIS C INHIBITOR COMPOUNDS” (priority 2009, published 2011).
Where two headings read alike, the source gives them in different places.

Experiments:
[1] = system: HCV genotype 1a (strain H77) subgenomic replicon with NS3 resistance mutation R155K in Huh-7 cells; assay: HCV replicon RNA replication assay (NS3 protease variants), genotype 1a R155K; assay type: cell-based; settings: Hepatitis C virus
[2] = system: HCV genotype 1b (Con-1) subgenomic replicon with NS3 resistance mutation D168V in Huh-7 cells; assay: HCV replicon RNA replication assay (NS3 protease variants), genotype 1b D168V; assay type: cell-based; settings: Hepatitis C virus
[3] = Huh-7, 72 h, read-out: R155K 1a EC50 (nM)
[4] = Huh-7, 72 h, read-out: D168V 1b EC50 (nM)
[5] = Huh-7, read-out: R155K 1a Ec50 (nM)
[6] = Huh-7, read-out: D168V 1b Ec50 (nM)

Row | SMILES | EC50 [1, 3] [nM] | EC50 [2, 4] [nM] | EC50 [1, 5] [nM] | EC50 [2, 6] [nM]
1 | COc1ccc2c(O[C@@H]3C[C@H]4C(=O)N[C@]5(C(=O)NS(=O)(=O)C6(C)CC6)C[C@H]5/C=C\CCCCC[C@H](NC(=O)N(C)C)C(=O)N4C3)cc(OC(C)C)nc2c1C [Compound 2008, (2R,6S,12Z,13aS,14aR,16aS)-6-[(dimethylcarbamoyl)amino]-2-{[7-methoxy-8-methyl-2-(propan-2-yloxy)quinolin-4-yl]oxy}-N-[(1-methylcyclopropyl)sulfonyl]-5,16-dioxo-1,2,3,6,7,8,9,10,11,13a,14,15,16,16a-tetradecahydrocyclopropa[e]pyrrolo[1,2-a][1,4]diazacyclopentadecine-14a(5H)-carboxamide] | 6.7 | 1.5 | – | –
2 | CCOc1cc(O[C@@H]2C[C@H]3C(=O)N[C@]4(C(=O)NS(=O)(=O)C5CC5)C[C@H]4/C=C\CCCCC[C@H](NC(=O)c4ccc(COC)s4)C(=O)N3C2)c2ccc(OC)c(C)c2n1 [Compound 1014, (2R,6S,12Z,13aS,14aR,16aS)-N-(cyclopropylsulfonyl)-2-[(2-ethoxy-7-methoxy-8-methylquinolin-4-yl)oxy]-6-({[5-(methoxymethyl)thiophen-2-yl]carbonyl}amino)-5,16-dioxo-1,2,3,6,7,8,9,10,11,13a,14,15,16,16a-tetradecahydrocyclopropa[e]pyrrolo[1,2-a][1,4]diazacyclopentadecine-14a(5H)-carboxamide] | 8.3 | 0.31 | – | –
3 | COc1ccc2c(O[C@@H]3C[C@H]4C(=O)N[C@]5(C(=O)NS(=O)(=O)C6(C)CC6)C[C@H]5/C=C\CCCCC[C@H](NC(=O)c5ccn(CC(C)C)n5)C(=O)N4C3)cc(OC(C)C)nc2c1C [Compound 1020, (2R,6S,12Z,13aS,14aR,16aS)-2-{[7-methoxy-8-methyl-2-(propan-2-yloxy)quinolin-4-yl]oxy}-N-[(1-methylcyclopropyl)sulfonyl]-6-({[1-(2-methylpropyl)-1H-pyrazol-3-yl]carbonyl}amino)-5,16-dioxo-1,2,3,6,7,8,9,10,11,13a,14,15,16,16a-tetradecahydrocyclopropa[e]pyrrolo[1,2-a][1,4]diazacyclopentadecine-14a(5H)-carboxamide] | 3.1 | 0.23 | – | –
4 | COc1ccc2c(C[C@H]3CC4C(=O)N(C)CCCC/C=C\[C@H]5C[C@]5(C(=O)NS(=O)(=O)C5CC5)NC(=O)[C@@H]4C3)cc(-c3nc(C(C)C)cs3)nc2c1C (some centres unmarked) [reference compound] | – | – | 300 | 4400
5 | COc1ccc2c(O[C@@H]3C[C@H]4C(=O)N[C@]5(C(=O)NS(=O)(=O)C6(C)CC6)C[C@H]5/C=C\CCCCC[C@H](NC(=O)c5ccn(CC(F)(F)F)n5)C(=O)N4C3)cc(OC3CCC3)nc2c1C [Compound 1023, (2R,6S,12Z,13aS,14aR,16aS)-2-{[2-(cyclobutyloxy)-7-methoxy-8-methylquinolin-4-yl]oxy}-N-[(1-methylcyclopropyl)sulfonyl]-5,16-dioxo-6-({[1-(2,2,2-trifluoroethyl)-1H-pyrazol-3-yl]carbonyl}amino)-1,2,3,6,7,8,9,10,11,13a,14,15,16,16a-tetradecahydrocyclopropa[e]pyrrolo[1,2-a][1,4]diazacyclopentadecine-14a(5H)-carboxamide] | 8.2 | 0.25 | – | –
6 | COc1ccc2c(O[C@@H]3C[C@H]4C(=O)N[C@]5(C(=O)NS(=O)(=O)C6CC6)C[C@H]5/C=C\CCCCC[C@H](NC(=O)c5ccno5)C(=O)N4C3)cc(OC(C)C)nc2c1C [Compound 1032, (2R,6S,12Z,13aS,14aR,16aS)-N-(cyclopropylsulfonyl)-2-{[7-methoxy-8-methyl-2-(propan-2-yloxy)quinolin-4-yl]oxy}-6-[(1,2-oxazol-5-ylcarbonyl)amino]-5,16-dioxo-1,2,3,6,7,8,9,10,11,13a,14,15,16,16a-tetradecahydrocyclopropa[e]pyrrolo[1,2-a][1,4]diazacyclopentadecine-14a(5H)-carboxamide] | 7.8 | 0.58 | – | –
7 | CCOc1cc(O[C@@H]2C[C@H]3C(=O)N[C@]4(C(=O)NS(=O)(=O)C5(C)CC5)C[C@H]4/C=C\CCCCC[C@H](NC(=O)N(C)C)C(=O)N3C2)c2ccc(OC)c(Br)c2n1 [Compound 2019, (2R,6S,12Z,13aS,14aR,16aS)-2-[(8-bromo-2-ethoxy-7-methoxyquinolin-4-yl)oxy]-6-[(dimethylcarbamoyl)amino]-N-[(1-methylcyclopropyl)sulfonyl]-5,16-dioxo-1,2,3,6,7,8,9,10,11,13a,14,15,16,16a-tetradecahydrocyclopropa[e]pyrrolo[1,2-a][1,4]diazacyclopentadecine-14a(5H)-carboxamide] | 5.2 | 1.4 | – | –
8 | COc1ccc2c(O[C@@H]3C[C@H]4C(=O)N[C@]5(C(=O)NS(=O)(=O)C6CC6)C[C@H]5/C=C\CCCCC[C@H](NC(=O)c5cc(C)n(C)n5)C(=O)N4C3)cc(OC(C)C)nc2c1C [Compound 1034, (2R,6S,12Z,13aS,14aR,16aS)-N-(cyclopropylsulfonyl)-6-{[(1,5-dimethyl-1H-pyrazol-3-yl)carbonyl]amino}-2-{[7-methoxy-8-methyl-2-(propan-2-yloxy)quinolin-4-yl]oxy}-5,16-dioxo-1,2,3,6,7,8,9,10,11,13a,14,15,16,16a-tetradecahydrocyclopropa[e]pyrrolo[1,2-a][1,4]diazacyclopentadecine-14a(5H)-carboxamide] | 7.7 | 0.67 | – | –
9 | COc1ccc2c(O[C@@H]3C[C@H]4C(=O)N[C@]5(C(=O)NS(=O)(=O)C6CC6)C[C@H]5/C=C\CCCCC[C@H](NC(=O)c5ccn(CC(=O)N(C)C)n5)C(=O)N4C3)cc(OC(C)C)nc2c1C [Compound 1002, (2R,6S,12Z,13aS,14aR,16aS)-N-(cyclopropylsulfonyl)-6-[({1-[2-(dimethylamino)-2-oxoethyl]-1H-pyrazol-3-yl}carbonyl)amino]-2-{[7-methoxy-8-methyl-2-(propan-2-yloxy)quinolin-4-yl]oxy}-5,16-dioxo-1,2,3,6,7,8,9,10,11,13a,14,15,16,16a-tetradecahydrocyclopropa[e]pyrrolo[1,2-a][1,4]diazacyclopentadecine-14a(5H)-carboxamide] | 2.6 | 3 | – | –
10 | COc1ccc2c(O[C@@H]3C[C@H]4C(=O)N[C@]5(C(=O)NS(=O)(=O)C6CC6)C[C@H]5/C=C\CCCCC[C@H](NC(=O)c5ccn(CCF)n5)C(=O)N4C3)cc(OC(C)C)nc2c1C [Compound 1031, (2R,6S,12Z,13aS,14aR,16aS)-N-(cyclopropylsulfonyl)-6-({[1-(2-fluoroethyl)-1H-pyrazol-3-yl]carbonyl}amino)-2-{[7-methoxy-8-methyl-2-(propan-2-yloxy)quinolin-4-yl]oxy}-5,16-dioxo-1,2,3,6,7,8,9,10,11,13a,14,15,16,16a-tetradecahydrocyclopropa[e]pyrrolo[1,2-a][1,4]diazacyclopentadecine-14a(5H)-carboxamide] | 4.2 | 0.39 | – | –
11 | CC(C)(C)OC(=O)N[C@H]1CCCCC/C=C\C2C[C@@]2(C(=O)NS(=O)(=O)C2CC2)NC(=O)[C@@H]2C[C@@H](OC(=O)N3Cc4cccc(F)c4C3)CN2C1=O (some centres unmarked) [reference compound] | – | – | 690 | 120
12 | COc1ccc2c(O[C@@H]3C[C@H]4C(=O)N[C@]5(C(=O)NS(=O)(=O)C6CC6)C[C@H]5/C=C\CCCCC[C@H](NC(=O)c5ccn(C)n5)C(=O)N4C3)cc(OCC(F)(F)F)nc2c1C [Compound 1015, (2R,6S,12Z,13aS,14aR,16aS)-N-(cyclopropylsulfonyl)-2-{[7-methoxy-8-methyl-2-(2,2,2-trifluoroethoxy)quinolin-4-yl]oxy}-6-{[(1-methyl-1H-pyrazol-3-yl)carbonyl]amino}-5,16-dioxo-1,2,3,6,7,8,9,10,11,13a,14,15,16,16a-tetradecahydrocyclopropa[e]pyrrolo[1,2-a][1,4]diazacyclopentadecine-14a(5H)-carboxamide] | 8.2 | 0.57 | – | –
13 | CCn1ccc(C(=O)N[C@H]2CCCCC/C=C\[C@@H]3C[C@@]3(C(=O)NS(=O)(=O)C3CC3)NC(=O)[C@@H]3C[C@@H](Oc4cc(OC(C)C)nc5c(C)c(OC)ccc45)CN3C2=O)n1 [Compound 1024, (2R,6S,12Z,13aS,14aR,16aS)-N-(cyclopropylsulfonyl)-6-{[(1-ethyl-1H-pyrazol-3-yl)carbonyl]amino}-2-{[7-methoxy-8-methyl-2-(propan-2-yloxy)quinolin-4-yl]oxy}-5,16-dioxo-1,2,3,6,7,8,9,10,11,13a,14,15,16,16a-tetradecahydrocyclopropa[e]pyrrolo[1,2-a][1,4]diazacyclopentadecine-14a(5H)-carboxamide] | 3.9 | 0.31 | – | –
